Source: paper PMC6234764, “First Insights Into Within Host Translocation of the Bacillus cereus Toxin Cereulide Using a Porcine Model” (Frontiers in Microbiology, 2018)
Read-outs that look alike come from different tables or passages of the source.

Columns and labels:
Format in all cases: in vivo, pig
[1] = system: piglets; assay: Blood analysis: hematology and clinical chemistry
Experimental: (§1) A total of four experiments, each including four treated animals and one control pig, was performed to investigate the action of cereulide on piglets after oral intake of cereulide. Pigs were either challenged orally with a single dose (acute trials) or with daily over a period of 7 days (chronic trial) (see Table 1). One hour before cereulide toxin administration blood samples were taken by puncturing the anterior Vena cava and piglets were weighed for calculation of the cereulide concentration (t = 0 h). In the intoxication experiment with 150 μg kg^-1 blood samples were taken 68 h before the experiment to reduce the distress for the animals at the start day of the experiments. Blood-chemical, immunological, and histological analyses of selected organs as well as quantification of cereulide in organs, tissues, urine and feces were carried out as detailed below.
(§2) After oral administration of cereulide, piglets were monitored for unusual behavior and examined physically with special respect on rectal body temperature as well as pulse and respiration rate, every 2–3 h. Blood samples were taken from the Vena cava cranialis. Urine and feces were collected during the whole experiment and stored at -80°C. After the experiment pigs were anaesthetized by intramuscular injection of a bolus of ketamine (10 mg kg^-1) and azaperone (1.3 mg kg^-1). When sedation was deep enough cerebrospinal fluid (liquor) was taken by lumbar puncture. Finally, pigs were euthanized by intracardial injection of T61®. Animals were then necropsied and parts of the following organs, tissues or body fluids were taken for SIDA-MS analysis: liver, lung, heart, kidney, brain, spleen, small and large intestine, lymph nodes, gastric as well as intestinal contents, skeletal muscle, and abdominal and subcutaneous fat. Samples of liver, lung, heart, kidney, brain, spleen, small, and large intestine were collected for histological analysis.
One milliliter EDTA-stabilized blood and 3 mL heparin-stabilized blood (worked up to serum) were screened for erythrocyte number, hemoglobin, hematocrit, mean cellular volume (MCV), mean cellular hemoglobin (MCH), mean cellular hemoglobin concentration (MCHC), leukocyte number, mean peroxidase index (MPXI), numbers of monocytes, lymphocytes, eosinophils, basophils, lymphoblasts, juvenile and segmented neutrophils, as well as glucose, urea, creatinine, total protein, aspartate amino transferase (AST), alanine amino transferase (ALT), […] (GLDH), gamma glutamyl transferase (GGT), bile acid, lipase, creatine kinase, sodium, potassium, chloride, calcium, and phosphorus at the central diagnostic unit of the University of Veterinary Medicine Vienna.

[2] = Cereulide in organs and tissues, SIDA-MS; conditions: for tissue level at time at 48 h / tissue level at time at 168 h: pig; for tissue level at time at 168 h: 10 ug/kg
Experimental: as §1
On body weight calculated amounts of cereulide, dissolved in ethanol, were mixed with milk (UHT milk; 3.5% fat), and fed to four piglets. Control piglets were fed with milk supplemented with similar ethanol concentrations as the experimental piglets. The experiment started after the uptake of the whole milk cereulide mixture. The milk was checked for bacterial contamination prior to the experiment.
as §2
Collected blood samples, urine, feces, tissue and organs were freeze dried and stored at -80°C until analysis. Before extraction, liquid nitrogen was added to frozen samples and they were crushed to a powder using a mortar. Ten microgram ^13C6-cereulide (for organs and feces) or 5 μg ^13C6-cereulide (for urine and blood) was added and samples were incubated on a rocking table for 2 h. Samples were solved in ethanol (volume depending on weight 10–40 mL), incubated 14 h, and the supernatants were collected by centrifugation (RT, 8500 g, 10 min). For pre-purification the ethanolic extract was 1:5 diluted with water and applied onto the top of a methanol activated C18-SPE cartridge (6 mL; 1 g; Strata C18-E; Phenomenex, Aschaffenburg, Germany). The cartridge was washed with 6 mL water followed by methanol/water (4 mL; 70/30, v/v) and target compounds were eluted with ethanol (2.5 mL). Finally, samples were membrane filtrated (0.2 μm; PTFE membrane; Phenomenex, Aschaffenburg, Germany) and analyzed by means of LC-MS/MS as described previously ([Bauer et al., 2010]). In brief, LC-MS/MS analysis was performed using an Agilent 1200 HPLC-system connected to the API 4000QTrap LC-MS/MS (Applied Biosystems, Darmstadt, Germany) running in the positive electrospray ionization (ESI^+, +5500 V) mode. Zero grade air served as nebulizer gas (45 psi) and turbo gas (425°C) for solvent drying (55 psi), nitrogen was used as curtain (20 psi) and collision gas (8.7 × 10^-7 psi), respectively. Both quadrapoles were set at unit resolution. […]

[3] = system: piglets; assay: Histological examination of organs; conditions: pigs orally challenged with cereulide
Experimental: as §2

[4] = daily oral dose 10 μg kg^-1 for 7 days, SIDA-MS
[5] = daily oral dose 10 μg kg^-1 over 7 days
[6] = single oral dose 30 μg kg^-1, necropsy after 48 h, SIDA-MS
[7] = single oral dose 150 μg kg^-1, necropsy after 48 h, SIDA-MS

SMILES: CC(C)C[C@H]1OC(=O)[C@H](C(C)C)NC(=O)[C@H](C(C)C)OC(=O)[C@@H](C)NC(=O)[C@@H](CC(C)C)OC(=O)[C@H](C(C)C)NC(=O)[C@H](C(C)C)OC(=O)[C@@H](C)NC(=O)[C@@H](CC(C)C)OC(=O)[C@H](C(C)C)NC(=O)[C@H](C(C)C)OC(=O)[C@@H](C)NC1=O [cereulide]
- Influence on blood cell composition and biochemical markers in blood ([1]; acute trials, samples before and after 8 (only 150 μg kg^-1), 24 and 48 h): no significant influence
- Creatine kinase (CK) ([1]; daily oral dose 10 μg kg^-1, after 3 days, all treated pigs): increase
- AST levels ([1]; daily oral dose 10 μg kg^-1, two out of four treated pigs after 3 and 7 days): elevated
- Creatine kinase (CK) levels ([1]; single oral dose 30 μg kg^-1): increased
- Creatine kinase (CK) levels ([1]; single oral dose 150 μg kg^-1): increased
- Leukocytes ([1]; single oral dose 150 μg kg^-1, all animals): increased levels
- Aspartate aminotransferase (AST) ([1]; single oral dose 150 μg kg^-1, three out of four pigs): transient increase
- Average concentration in content of large intestine, acute 150 μg kg^-1 versus chronic 10 μg kg^-1 daily ([2]; acute high dose over chronic trial): about 15 fold
- Amounts of cereulide in muscle, chronic trial versus acute high dose ([2]; chronic 10 μg kg^-1 daily exceeds acute 150 μg kg^-1): threefold
- Cereulide concentration in content of large intestine, range [2, 4]: 2.04 to 6.78 ng/g
- Cereulide concentration in kidney, range [2, 4]: 0.14 to 0.37 ng/g
- Cereulide concentration in large intestine, range [2, 4]: 1.16 to 5.05 ng/g
- Cereulide concentration in liver, range [2, 4]: 0.06 to 0.24 ng/g
- Cereulide concentration in lymph nodes, range [2, 4]: 0.01 to 0.14 ng/g
- Cereulide concentration in muscle, range [2, 4]: 0 to 2.23 ng/g
- Cereulide concentration in spleen, range [2, 4]: 0.10 to 0.21 ng/g
- Cereulide concentration in subcutaneous fat, range [2, 4]: 0 to 0.08 ng/g
- Cereulide in large intestine and large intestinal contents, maximum [2, 5]: up to 6.8 ng g^-1
- Detectability of cereulide in the small intestine [2, 5]: not detectable
- Passage of the blood-brain-barrier (BBB) ([2]; detection of cereulide in brain samples after oral challenge): can cross the BBB
- tissue level at time at 48 h ([2]; abdominal fat, 150 ug/kg, single oral dose 150 μg kg^-1, necropsy after 48 h, SIDA-MS, read-out: Cereulide concentration in abdominal fat, average): 7.88 ± 4.17 ng/g
- tissue level at time at 48 h ([2]; brain, 150 ug/kg, single oral dose 150 μg kg^-1, necropsy after 48 h, SIDA-MS, read-out: Cereulide concentration in brain, average): 0.73 ± 0.49 ng/g
- tissue level at time at 168 h ([2]; content of large intestine, daily oral dose 10 μg kg^-1 for 7 days, SIDA-MS, read-out: Cereulide concentration in content of large intestine, average): 4.41 ± 2.37 ng/g
- tissue level at time at 48 h ([2]; content of large intestine, 30 ug/kg, single oral dose 30 μg kg^-1, necropsy after 48 h, SIDA-MS, read-out: Cereulide concentration in content of large intestine, average): 0.07 ± 0.03 ng/g
- tissue level at time at 48 h ([2]; content of large intestine, 150 ug/kg, single oral dose 150 μg kg^-1, necropsy after 48 h, SIDA-MS, read-out: Cereulide concentration in content of large intestine, average): 67.9 ± 50.8 ng/g
- tissue level at time at 48 h ([2]; content of small intestine, 150 ug/kg, single oral dose 150 μg kg^-1, necropsy after 48 h, SIDA-MS, read-out: Cereulide concentration in content of small intestine, average): 0.68 ± 0.53 ng/g
- tissue level at time at 168 h ([2]; kidney, daily oral dose 10 μg kg^-1 for 7 days, SIDA-MS, read-out: Cereulide concentration in kidney, average): 0.25 ± 0.12 ng/g
- tissue level at time at 48 h ([2]; kidney, 150 ug/kg, single oral dose 150 μg kg^-1, necropsy after 48 h, SIDA-MS, read-out: Cereulide concentration in kidney, average): 0.21 ± 0.21 ng/g
- tissue level at time at 168 h ([2]; large intestine, daily oral dose 10 μg kg^-1 for 7 days, SIDA-MS, read-out: Cereulide concentration in large intestine, average): 3.11 ± 1.95 ng/g
- tissue level at time at 48 h ([2]; large intestine, 30 ug/kg, single oral dose 30 μg kg^-1, necropsy after 48 h, SIDA-MS, read-out: Cereulide concentration in large intestine, average): 0.07 ± 0.06 ng/g
- tissue level at time at 48 h ([2]; large intestine, 150 ug/kg, single oral dose 150 μg kg^-1, necropsy after 48 h, SIDA-MS, read-out: Cereulide concentration in large intestine, average): 30.5 ± 14.3 ng/g
- tissue level at time at 168 h ([2]; liver, daily oral dose 10 μg kg^-1 for 7 days, SIDA-MS, read-out: Cereulide concentration in liver, average): 0.14 ± 0.08 ng/g
- tissue level at time at 48 h ([2]; liver, 150 ug/kg, single oral dose 150 μg kg^-1, necropsy after 48 h, SIDA-MS, read-out: Cereulide concentration in liver, average): 0.37 ± 0.07 ng/g
- tissue level at time at 168 h ([2]; lymph nodes, daily oral dose 10 μg kg^-1 for 7 days, SIDA-MS, read-out: Cereulide concentration in lymph nodes, average): 0.07 ± 0.07 ng/g
- tissue level at time at 48 h ([2]; lymph nodes, 150 ug/kg, single oral dose 150 μg kg^-1, necropsy after 48 h, SIDA-MS, read-out: Cereulide concentration in lymph nodes, average): 2.82 ± 1.71 ng/g
- tissue level at time at 168 h ([2]; muscle, daily oral dose 10 μg kg^-1 for 7 days, SIDA-MS, read-out: Cereulide concentration in muscle, average): 1.12 ± 1.12 ng/g
- tissue level at time at 48 h ([2]; muscle, 150 ug/kg, single oral dose 150 μg kg^-1, necropsy after 48 h, SIDA-MS, read-out: Cereulide concentration in muscle, average): 0.39 ± 0.32 ng/g
- tissue level at time at 48 h ([2]; small intestine, 150 ug/kg, single oral dose 150 μg kg^-1, necropsy after 48 h, SIDA-MS, read-out: Cereulide concentration in small intestine, average): 1.34 ± 0.88 ng/g
- tissue level at time at 168 h ([2]; spleen, daily oral dose 10 μg kg^-1 for 7 days, SIDA-MS, read-out: Cereulide concentration in spleen, average): 0.15 ± 0.06 ng/g
- tissue level at time at 48 h ([2]; spleen, 150 ug/kg, single oral dose 150 μg kg^-1, necropsy after 48 h, SIDA-MS, read-out: Cereulide concentration in spleen, average): 2.26 ± 1.75 ng/g
- tissue level at time at 48 h ([2]; stomach, 150 ug/kg, single oral dose 150 μg kg^-1, necropsy after 48 h, SIDA-MS, read-out: Cereulide concentration in stomach, average): 2 ± 3.2 ng/g
- tissue level at time at 168 h ([2]; subcutaneous fat, daily oral dose 10 μg kg^-1 for 7 days, SIDA-MS, read-out: Cereulide concentration in subcutaneous fat, average): 0.04 ± 0.04 ng/g
- tissue level at time at 48 h ([2]; subcutaneous fat, 150 ug/kg, single oral dose 150 μg kg^-1, necropsy after 48 h, SIDA-MS, read-out: Cereulide concentration in subcutaneous fat, average): 0.74 ± 0.51 ng/g
- Cereulide concentration in content of large intestine, range [2, 6]: 0 to 0.09 ng/g
- Cereulide concentration in large intestine, range [2, 6]: 0 to 0.13 ng/g
- Cereulide in content of the large intestine, maximum ([2]; single oral dose 150 μg kg^-1): up to 140 ng g^-1
- Cereulide in content of the small intestine, maximum ([2]; single oral dose 150 μg kg^-1): ≤ 1 ng/g
- Cereulide in the brain, animal with highest blood concentration ([2]; single oral dose 150 μg kg^-1): 1.4 ng cereulide g^-1
- Cereulide in fat tissue, one animal ([2]; single oral dose 150 μg kg^-1, animal with highest blood concentration): 2 ng cereulide g^-1 fat tissue
- Cereulide concentration in abdominal fat, range [2, 7]: 2.17 to 12.02 ng/g
- Cereulide concentration in brain, range [2, 7]: 0.15 to 1.41 ng/g
- Cereulide concentration in content of large intestine, range [2, 7]: 5.84 to 140.99 ng/g
- Cereulide concentration in content of small intestine, range [2, 7]: 0 to 1.06 ng/g
- Cereulide concentration in kidney, range [2, 7]: 0 to 0.43 ng/g
- Cereulide concentration in large intestine, range [2, 7]: 7.14 to 45.75 ng/g
- Cereulide concentration in liver, range [2, 7]: 0.25 to 0.41 ng/g
- Cereulide concentration in lymph nodes, range [2, 7]: 0 to 4.50 ng/g
- Cereulide concentration in muscle, range [2, 7]: 0 to 0.76 ng/g
- Cereulide concentration in small intestine, range [2, 7]: 0.34 to 2.49 ng/g
- Cereulide concentration in spleen, range [2, 7]: 1.15 to 5.29 ng/g
- Cereulide concentration in stomach, range [2, 7]: 0.11 to 7.54 ng/g
- Cereulide concentration in subcutaneous fat, range [2, 7]: 0.35 to 1.37 ng/g
- Cereulide in fat tissues, maximum ([2]; single oral dose 150 μg kg^-1, two out of four animals): up to 12 ng cereulide g^-1
- Histological examinations of liver, lung, heart, kidneys, brain, spleen and gastrointestinal tract [3]: did not reveal any notable or specific pathological changes
